This data set concerns ICR mice. The procedure:
2.experimental animals: ICR mice, SPF, male and female, body weight 18-20 g, all bought from Shanghai SIPPR/BK Experimental Animal Co. Laboratory animal license No. SCXK (Hu)2003-0002
3. experimental conditions: SPF experimental environment. Grouped the experimental mice 5 per cage and bred. The breeding temperature was 22±2° C., the humidity was 60-70% and Laboratory animal license number was SCXK (Hu)2002-0035. The mice were bred with the solid high pressure forage. Fasted 12 hours before the test but no water-deprivation.
After administration, the mice were liberated to diet. Observed the mice once immediately, every morning and every afternoon for 7 continuous days. The mice were observed once a day from the 8th day. Record the mortality and toxic reaction of the experimental animals.

Several values for one entry are separate records, joined by “and”; a condition that tells them apart may be missing. Identical values can stand only once.

Usually LD50 stands for the dose expected to kill half of the subjects tested. The low end stands for greater toxicity, the high end for lower toxicity. As for `C/C=C1\[C@H]2C=C(C)C[C@]1(N)c1ccc(=O)[nH]c1C2` [Control medicine, Huperzine A], the “content of HupA at the LD50 of the composition” value (HupA part of the LD50 dose) worked out at 6.03 mg/kg. In addition, the LD50 (ICR mice, intragastric, simplified probit method, confidence limit 95%) was 6.03 ± 1.46 mg/kg and 6.03 mg/kg.

Values taken from patent publication US8574633B2 (priority 2004, dated 2013).
